Reference: publication PMC4700476, “Differential regulation by AMP and ADP of AMPK complexes containing different γ subunit isoforms” (Biochemical Journal, 2016)

Legend:
[1] = test system: γ2-containing AMPK complexes in HEK-293 cells expressing FLAG–γ2; assay: Activation of AMPK complexes in intact cells (anti-FLAG IP kinase assay and pThr172 blot); type: cell-based, human; conditions: γ2 complex; 60 min; phenformin 10 mM, berberine 300 μM, A23187 10 μM, A-769662 300 μM
Protocol: (§1) HEK-293 cells expressing tetracycline-inducible human γ1, γ2 and γ3 with N-terminal FLAG tags were obtained by inserting the appropriate DNA into cells carrying a Flp recombinase target site with co-transfection of DNA encoding Flp recombinase; expression of the γ subunits was induced by adding tetracycline (1 μg·ml^−1) to the medium for 48 h.
(§2) HEK-293 cells were grown in Dulbecco's modified Eagle's medium (DMEM) containing 4.5 g/l glucose, 10% (v/v) FBS, 100 units/ml penicillin, 100 μg/ml streptomycin, 200 μg/ml hygromycin and 15 μg/ml blasticidin. The medium was replaced with medium containing 1 g/l glucose, 16 h before the treatments described in the text.
(§3) Cell lysates were made using the rapid lysis procedure. Lysates containing stably expressed recombinant FLAG-tagged γ subunits were immunoprecipitated from HEK-293 cell lysates (90 μg of lysate protein) by incubation at 4°C for 2 h on a roller mixer with 7.5 μl of EZview Red anti-FLAG M2 affinity gel (Sigma–Aldrich). After extensive washing, the immunoprecipitates (IPs) were assayed for AMPK activity on an orbital shaker as described previously except that the AMARA peptide substrate was used in all assays apart from those shown in Figures 3 and 4. The SAMS peptide was used in the latter because, for reasons that remain unclear, the degree of allosteric activation is always greater using this substrate.
(§4) Figure 2 Activation of FLAG–γ1,–γ2 or–γ3 by various AMPK activators Cells expressing FLAG–γ1,–γ2 or–γ3 were incubated with DMSO (vehicle), phenformin (10 mM), berberine (300 μM), A23187 (10 μM) or A-769662 (300 μM) for 60 min, AMPK complexes were immunoprecipitated using anti-FLAG antibodies and were analysed by kinase assays (upper panel) and Western blotting (lower panel). […] The absolute activities (nmol/min/mg of lysate protein) in the DMSO controls were: 0.16±0.01 (γ1), 0.24±0.01 (γ2) and 0.053±0.001 (γ3; means ± S.E.M., n=3).

[2] = test system: γ3-containing AMPK complexes in HEK-293 cells expressing FLAG–γ3; assay: as above; type: cell-based, human; conditions: for AMPK activation and Thr172 phosphorylation in intact cells: γ3 complex, 60 min, phenformin 10 mM, berberine 300 μM, A23187 10 μM, A-769662 300 μM
Protocol: as §1, §2, §3, §4

[3] = test system: γ1-containing AMPK complexes in HEK-293 cells expressing FLAG–γ1; assay: as above; type: cell-based, human; conditions: γ1 complex; 60 min; phenformin 10 mM, berberine 300 μM, A23187 10 μM, A-769662 300 μM
Protocol: as §1, §2, §3, §4

[4] = test system: AMPK; set-up: method as in PMID 24746562; conditions: AMPK not phosphorylated on Thr172; cited from earlier work
[5] = test system: rat hepatocytes; set-up: method as in PMID 17855357; conditions: cited from earlier work
[6] = test system: γ3-containing AMPK complexes in mouse skeletal muscle; set-up: method as in PMID 25695398; conditions: cited from earlier work
[7] = test system: γ1-containing AMPK complexes in mouse skeletal muscle; set-up: method as in PMID 25695398; conditions: cited from earlier work

| SMILES | AMPK activation and Thr172 phosphorylation in intact cells [1] | AMPK activation and Thr172 phosphorylation in intact cells [2] | AMPK activation and Thr172 phosphorylation in intact cells [3] | further results |
| --- | --- | --- | --- | --- |
| CNc1ccc2oc(C[C@H]3O[C@@]4(CC[C@H]3C)O[C@H]([C@H](C)C(=O)c3ccc[nH]3)[C@H](C)C[C@H]4C)nc2c1C(=O)O [A23187] | activated | activated | activated |  |
| N#Cc1c(O)c2c(-c3ccc(-c4ccccc4O)cc3)csc2[nH]c1=O [A-769662] | only modest increases | only modest increases | did not significantly activate | allosteric activation of AMPK [4]: > 60 fold; increases in Thr172 phosphorylation [5]: negligible; phosphorylation of acetyl-CoA carboxylase (ACC) [5]: marked phosphorylation |
| NC(=O)c1ncn([C@@H]2O[C@H](CO)[C@@H](O)[C@H]2O)c1N [AICAR, 5-aminoimidazole-4-carboxamide riboside] |  |  |  | activation of γ3-containing complexes [6]: activated both isoforms; activation of γ1-containing complexes [7]: activated both isoforms |
| O=C(O)c1ccc2c3c1cccc3c(=O)n1c3ccccc3nc21 [STO-609] |  |  |  | effect on activation of γ3 complex by A23187 ([2]; results not shown): completely blocked |
| COc1ccc2cc3[n+](cc2c1OC)CCc1cc2c(cc1-3)OCO2 [berberine, Berberine chloride] | activated | activated | activated |  |
| [H]/N=C(/N)N/C(=N/[H])NCCc1ccccc1 [phenformin] | activated | activated | activated |  |
